Experimental data from patent US12600725B2 (Memorial Sloan-Kettering Cancer Center, priority 2013, dated 2026).
“Also recorded” adds a separate entry of the source.

Columns and labels:
[1] = system: HER2-overexpressing breast cancer cells; experiment: Cell cycle, PARP cleavage, apoptosis and Hsp70 induction in HER2-overexpressing breast cancer cells; type: cell-based
[2] = system: TLR9 ligand CpG DNA induced TNF-α production in RAW 264.7 macrophages; experiment: TNFα ELISA, CpG DNA stimulated macrophages; type: cell-based, mouse
[3] = system: EGFR and its downstream signaling in HMEC cells; experiment: Western blot of EGFR and downstream signaling in normal cells; type: cell-based, human; settings: 24 h
Procedure: For comparison, the agent was also tested in a normal cell line, human mammary epithelial cells (HMECs). […] Without wishing to be bound by any particular theory, it is believed that a Grp94 selective inhibitor may therefore have a better therapeutic index than a direct RTK modulator (i.e. TKI or antibody) because it will act on the RTK only in conditions of oncogenic overexpression (see EGFR in TNBC cell lines vs HMEC). […] Approximately half of cases of triple-negative breast cancer (TNBC) and inflammatory breast cancer (IBC) overexpress EGFR, nonetheless clinical trials testing EGFR inhibitors reported lack of or limited benefit (Masuda H. et al. Breast Cancer Res Treat. 2012 November; 136(2):331-45). Without wishing to be bound by any particular theory, it is believed that such ineffectiveness is due to a crosstalk between EGFR and c-Met or other RTKs, because strategies that knocked down EGFR either by siRNA or by mixtures of antibodies that induces robust degradation of EGFR, led to reduced viability of TNBC cells (Mueller et al., Breast Cancer Res. 2012 Jul. 12; 14(4):R^104; Ferraro et al., Proc Natl Acad Sci USA. 2013 Jan. 29; 110(5):1815-20. PMID:23319610). […] Protein concentrations were determined using BCA kit (Pierce) according to the manufacturer's instructions. […]

[4] = system: HER2 at the plasma membrane of SKBr3 cells; experiment: Immunofluorescence of HER2 architecture at the plasma membrane; type: cell-based
Procedure: We next investigated the biological significance of the unique association of HER^2 with Grp94 at the plasma membrane of SKBr3 cells. Because the Grp94 inhibitors described here target the ATP-binding pocket of Grp94, they affect Grp94 chaperone activity. Therefore we hypothesized that Grp94 may act on HER^2 at the plasma membrane to stabilize the protein and to regulate its function.
Immunofluorescence. Cells were seeded and grown onto culture slides (BD Falcon) for 24 hrs. After washing with cold PBS, cells were fixed by treating at 4° C. for 20 min with 4% paraformaldehyde in PBS, permeabilized with 0.1% Triton X-100 in PBS containing 10% FBS for 10 min, and blocked with 2% BSA for 1 hr. After washing for four times with PBS, primary antibodies were added onto the chambers and cell were incubated overnight at 4° C., washed again with PBS followed by incubation with the secondary antibody for 1 hr at room temperature. Cell were washed and then mounted and observed under microscope (Leica Upright Confocal SP5). The primary antibodies used in the assay are against: HER^2 (Zymed, 28004), Grp94 (Stressgen, SPA-850), Hsp70 (Stressgen, SPA-810), LAMP1-FITC (Abcam, ab25406), EEA1 (Abcam, ab70521), 58K Golgi-FITC (Abcam, ab27043) and Calnexin (BD, 610523).

Capan-2 cells = experiment: Cell viability assessment (CellTiter-Glo); type: cell-based

CC(C)NCCCn1c(Sc2cc(Cl)cc(Cl)c2)nc2c(N)ncnc21 [PU-WS13]
accumulation of cells in sub-G1 phase, time first observed post-treatment [1]: 1 to 2 h | cells exhibiting markers of early- and late-stage apoptosis [1]: substantial increase | cleavage of PARP [1]: cleavage of PARP | feed-back heat shock response (Hsp70 induction) [1]: little to no Hsp70 induction | CpG DNA induced TNF-α production [2]: inhibited this response in a concentration dependent manner; also recorded: inhibit | effect on EGFR and its downstream signaling in normal cells [3]: does not affect EGFR and its downstream signaling | effect on HER2 architecture at the plasma membrane [4]: disruption of the circular architecture of HER^2 at the plasma membrane | effect on cell growth (Capan-2 cells): no effect
